{
  "source": "patent US6147097A",
  "about": "“Imidazole derivatives as anti-HIV agents” (Shionogi & Co., Ltd., priority 1994, dated 2000)",
  "key": {"[1]": {"assay": "cytotoxicity in MT-4 cells (MTT, culture medium in place of HIV)", "format": "cell-based", "conditions": "human", "summary_of_the_method": "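MT-4 cells (3.5×10^4 per well) exposed to diluted compound with culture medium added instead of HIV, 5 days at 37° C in CO2. MTT added for 1 h, formazan dissolved in Triton X-100/acidified isopropanol. OD read at 560 nm (690 nm reference) and compared with control.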"}, "HIV (HTLV-IIIB strain)": {"test_system": "HIV (HTLV-IIIB strain)", "assay": "microbe, parasite or virus in culture", "format": "cell-based", "conditions": "Human immunodeficiency virus 1, IIIB, MT4, 120 h", "summary_of_the_method": "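MT-4 cells (3.5×10^4 per well) were infected with HIV at 60 pfu per well in the presence of diluted compound and incubated for 5 days at 37° C. Surviving cells were then measured by MTT reduction, with the formazan dissolved in acidified isopropanol containing Triton X-100.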"}, "[2]": {"target": "T1, purified recombinant HIV-1 reverse transcriptase (Human immunodeficiency virus type 1 group M subtype B, UniProt P04585)", "T1 construct": "purified recombinant HIV-1 reverse transcriptase; made in house; host or cells: Escherichia coli", "assay": "reverse transcriptase inhibition, poly(rA)/(dT) template primer, [3H]dTTP uptake", "format": "biochemical", "summary_of_the_method": "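Inhibition reported as percent reduction of [3H]dTTP incorporation relative to solvent control, after 1 h at 37 °C at pH 8.3. Recombinant RT from E. coli, poly(rA) template with oligo(dT) primer, 4 μM unlabeled dTTP as substrate; product collected on DEAE filter mats.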"}, "[3]": {"conditions": "MT-4 cells, no virus, 37° C., 5 days, MTT, Table 3, read-out: CC50"}, "[4]": {"conditions": "MT-4 cells, 60 pfu HIV per well, 37° C., 5 days, MTT, Tables 1 and 2, read-out: EC50"}},
  "note": "Where two headings read alike, the source gives them in different places.",
  "data": [
    {"smiles": "CCc1nc(C)n(C)c1Sc1cc(C)cc(C)c1", "note": "[Compound I-5, 1,2-dimethyl-5-(3,5-dimethylphenylthio)-4-ethylimidazole]", "values": [
      {"measurement": "CC50 at 120 h", "setting": "[1]; [3]", "value": "1 to 10", "unit": "µg/mL"},
      {"measurement": "EC50", "setting": "HIV (HTLV-IIIB strain); [4]", "value": 0.06, "unit": "µg/mL"},
      {"measurement": "IC50", "setting": "[2]", "value": 8.83, "unit": "µM"}
    ]},
    {"smiles": "CC(C)c1nc(COC(N)=O)n(Cc2cccnc2)c1Sc1cc(Cl)cc(Cl)c1", "note": "[Compound I-92, 2-carbamoyloxymethyl-5-(3,5-dichlorophenylthio)-4-isopropyl-1-(pyridin-3-yl)methyl-1H-imidazole]", "values": [
      {"measurement": "CC50 at 120 h", "setting": "[1]; mt-4 cells", "value": "12.5 to 24", "unit": "µg/mL"},
      {"measurement": "EC50", "setting": "HIV (HTLV-IIIB strain)", "value": 0.001, "unit": "µg/mL"},
      {"measurement": "IC50", "setting": "[2]", "value": 0.775, "unit": "µM"}
    ]},
    {"smiles": "CC(C)c1nc(CO)n(C)c1Sc1cccc([N+](=O)[O-])c1", "note": "[Compound I-14, [4-isopropyl-1-methyl-5-(3-nitrophenylthio)-1H-imidazol-2-yl]methanol]", "values": [
      {"measurement": "CC50 at 120 h", "setting": "[1]; [3]", "value": "12.5 to 25", "unit": "µg/mL"},
      {"measurement": "EC50", "setting": "HIV (HTLV-IIIB strain); [4]", "value": 0.03, "unit": "µg/mL"},
      {"measurement": "IC50", "setting": "[2]", "value": 4.23, "unit": "µM"}
    ]},
    {"smiles": "CC(C)c1nc(COC(N)=O)n(Cc2ccccc2)c1Sc1cc(Cl)cc(Cl)c1", "note": "[Compound I-45, 1-benzyl-2-carbamoyloxymethyl-5-(3,5-dichlorophenylthio)-4-isopropyl-1H-imidazole]", "values": [
      {"measurement": "CC50 at 120 h", "setting": "[1]; [3]", "value": 12.5, "unit": "µg/mL"},
      {"measurement": "EC50", "setting": "HIV (HTLV-IIIB strain)", "value": "0.004 to 0.008", "unit": "µg/mL"},
      {"measurement": "IC50", "setting": "[2]", "value": 1.44, "unit": "µM"}
    ]},
    {"smiles": "Cc1cc(C)cc(Sc2c(C(C)C)nc(C=NN)n2C)c1", "note": "[Compound I-11, 5-(3,5-dimethylphenylthio)-4-isopropyl-1-methyl-1H-imidazole-2-carbaldehyde hydrazone]", "values": [
      {"measurement": "CC50 at 120 h", "setting": "[1]; [3]", "value": "1 to 10", "unit": "µg/mL"},
      {"measurement": "EC50", "setting": "HIV (HTLV-IIIB strain); [4]", "value": 0.25, "unit": "µg/mL"},
      {"measurement": "IC50", "setting": "[2]", "value": 54.6, "unit": "µM"}
    ]},
    {"smiles": "CC(C)c1nc(CN)n(Cc2ccncc2)c1Sc1cc(Cl)cc(Cl)c1", "note": "[I-95', 2-aminomethyl-5-(3,5-dichlorophenylthio)-4-isopropyl-1-(pyridin-4-yl)methyl-1H-imidazole]", "values": [
      {"measurement": "CC50 at 120 h", "setting": "[1]; [3]", "value": "6.3 to 12.5", "unit": "µg/mL"},
      {"measurement": "EC50", "setting": "HIV (HTLV-IIIB strain); [4]", "value": 0.005, "unit": "µg/mL"},
      {"measurement": "IC50", "setting": "[2]", "value": 1.18, "unit": "µM"}
    ]},
    {"smiles": "CC(C)c1nc(CCO)n(Cc2ccccc2N)c1Sc1cc(Cl)cc(Cl)c1", "note": "[Compound I-143]", "values": [
      {"measurement": "CC50 at 120 h", "setting": "[1]; mt-4 cells", "value": 12.5, "unit": "µg/mL"},
      {"measurement": "EC50", "setting": "HIV (HTLV-IIIB strain); [4]", "value": 0.008, "unit": "µg/mL"},
      {"measurement": "IC50", "setting": "[2]", "value": 77, "unit": "µM"}
    ]},
    {"smiles": "CC(C)c1nc(C=O)n(C)c1Sc1cc(Cl)cc(Cl)c1", "note": "[Compound I-7, 5-(3,5-dichlorophenylthio)-4-isopropyl-1-methyl-1H-imidazole-2-carbaldehyde]", "values": [
      {"measurement": "CC50 at 120 h", "setting": "[1]; [3]", "value": "10 to 100", "unit": "µg/mL"},
      {"measurement": "EC50", "setting": "HIV (HTLV-IIIB strain); [4]", "value": 0.13, "unit": "µg/mL"},
      {"measurement": "IC50", "setting": "[2]", "value": 131, "unit": "µM"}
    ]},
    {"smiles": "CCn1c(CN)nc(C(C)C)c1Sc1cc(Cl)cc(Cl)c1", "note": "[Compound I-71, 2-aminomethyl-5-(3,5-dichlorophenylthio)-1-ethyl-4-isopropyl-1H-imidazole]", "values": [
      {"measurement": "CC50 at 120 h", "setting": "[1]; [3]", "value": "1 to 10", "unit": "µg/mL"},
      {"measurement": "EC50", "setting": "HIV (HTLV-IIIB strain); [4]", "value": 0.008, "unit": "µg/mL"},
      {"measurement": "IC50", "setting": "[2]", "value": 0.987, "unit": "µM"}
    ]},
    {"smiles": "CC(C)c1nc(CC(N)=O)n(C)c1Sc1cc(Cl)cc(Cl)c1", "note": "[Compound I-135, 2-[5-(3,5-dichlorophenylthio)-4-isopropyl-1-methyl-1H-imidazol-2-yl] acetamide]", "values": [
      {"measurement": "CC50 at 120 h", "setting": "[1]; mt-4 cells", "value": "25 to 50", "unit": "µg/mL"},
      {"measurement": "EC50", "setting": "HIV (HTLV-IIIB strain); [4]", "value": "0.016 to 0.03", "unit": "µg/mL"},
      {"measurement": "IC50", "setting": "[2]", "value": 10.6, "unit": "µM"}
    ]},
    {"smiles": "CC(O)Cn1c(CO)nc(C(C)C)c1Sc1cc(Cl)cc(Cl)c1", "note": "(stereo not drawn) [I-32', [1-(2-hydroxypropyl)-5-(3,5-dichlorophenylthio)-4-isopropyl-1H-imidazol-2-yl]methanol]", "values": [
      {"measurement": "CC50 at 120 h", "setting": "[1]; [3]", "value": "12.5 to 25", "unit": "µg/mL"},
      {"measurement": "EC50", "setting": "HIV (HTLV-IIIB strain); [4]", "value": "0.002 to 0.004", "unit": "µg/mL"},
      {"measurement": "IC50", "setting": "[2]", "value": 1.52, "unit": "µM"}
    ]},
    {"smiles": "CC(C)c1nc(CO)n(Cc2ccc(=O)[nH]c2)c1Sc1cc(Cl)cc(Cl)c1", "note": "[Compound 116a, 5-(3,5-dichlorophenylthio)-2-hydroxymethyl-1-(6-oxo-1,6-dihydro-pyridin-3-yl)methyl-4-isopropyl-1H-imidazole]", "values": [
      {"measurement": "CC50 at 120 h", "setting": "[1]; mt-4 cells", "value": 30.7, "unit": "µg/mL"},
      {"measurement": "EC50", "setting": "HIV (HTLV-IIIB strain); [4]", "value": 0.004, "unit": "µg/mL"},
      {"measurement": "IC50", "setting": "[2]", "value": 3.06, "unit": "µM"}
    ]},
    {"smiles": "CCn1c(CCCOC(N)=O)nc(C(C)C)c1Sc1cc(Cl)cc(Cl)c1", "note": "[Compound I-149, 2-(3-carbamoyloxypropyl)-5-(3,5-dichlorophenylthio)-1-ethyl-4-isopropyl-1H-imidazole]", "values": [
      {"measurement": "CC50 at 120 h", "setting": "[1]; mt-4 cells", "value": 6.3, "unit": "µg/mL"},
      {"measurement": "EC50", "setting": "HIV (HTLV-IIIB strain); [4]", "value": 0.01, "unit": "µg/mL"},
      {"measurement": "IC50", "setting": "[2]", "value": 0.769, "unit": "µM"}
    ]},
    {"smiles": "CC(C)c1nc(COCCOC(N)=O)n(C)c1Sc1cc(Cl)cc(Cl)c1", "note": "[Compound I-61, (2-carbamoyloxy)ethoxymethyl-5-(3,5-dichlorophenylthio)-4-isopropyl-1-methyl-1H-imidazole]", "values": [
      {"measurement": "CC50 at 120 h", "setting": "[1]; [3]", "value": "6.3 to 12.5", "unit": "µg/mL"},
      {"measurement": "EC50", "setting": "HIV (HTLV-IIIB strain); [4]", "value": 0.5, "unit": "µg/mL"},
      {"measurement": "IC50", "setting": "[2]", "value": 185, "unit": "µM"}
    ]}
  ]
}
